According to ChEMBL document CHEMBL3352247, “Synthesis and antimycobacterial evaluation of 5-alkylamino-N-phenylpyrazine-2-carboxamides” (Bioorg Med Chem, 2015):
Converted amounts (≈) assume the structure as drawn. The source made the active and inactive calls. The calls are words filed in the database; no cut-off is given here.

Assays:
[1] = system: Escherichia coli; experiment: Antibacterial activity against Escherichia coli CCM 4517 after 24 to 48 hrs by broth microdilution method; assay type: functional, organism-based
[2] = system: Staphylococcus aureus; experiment: Antibacterial activity against Staphylococcus aureus CCM 4516/08 after 24 to 48 hrs by broth microdilution method; assay type: functional, organism-based
[3] = system: Mycobacterium tuberculosis; experiment: Antimycobacterial activity against Mycobacterium tuberculosis H37Rv CNCTC My 331/88 after 10 to 14 days by AlamarBlue assay; assay type: functional
[4] = system: Klebsiella pneumoniae; experiment: Antibacterial activity against Klebsiella pneumoniae D 11750/08 clinical isolate after 24 to 48 hrs by broth microdilution method; assay type: functional, organism-based
[5] = system: Trichophyton mentagrophytes; experiment: Antifungal activity against Trichophyton mentagrophytes 445 after 72 to 120 hrs by two-fold dilution method; assay type: functional, organism-based
[6] = system: Trichosporon asahii; experiment: Antifungal activity against Trichosporon asahii 1188 after 24 to 48 hrs by two-fold dilution method; assay type: functional, organism-based
[7] = system: Staphylococcus aureus; experiment: Antibacterial activity against methicillin-resistant Staphylococcus aureus H 5996/08 clinical isolate after 24 to 48 hrs by broth microdilution method; assay type: functional, organism-based
[8] = system: Candida tropicalis; experiment: Antifungal activity against Candida tropicalis 156 after 24 to 48 hrs by two-fold dilution method; assay type: functional, organism-based
[9] = system: Aspergillus fumigatus; experiment: Antifungal activity against Aspergillus fumigatus 231 after 24 to 48 hrs by two-fold dilution method; assay type: functional, organism-based
[10] = system: Pseudomonas aeruginosa; experiment: Antibacterial activity against Pseudomonas aeruginosa CCM 1961 after 24 to 48 hrs by broth microdilution method; assay type: functional, organism-based
[11] = system: Lichtheimia corymbifera; experiment: Antifungal activity against Absidia corymbifera 272 after 24 to 48 hrs by two-fold dilution method; assay type: functional, organism-based
[12] = system: Nakaseomyces glabratus; experiment: Antifungal activity against Candida glabrata 20/I after 24 to 48 hrs by two-fold dilution method; assay type: functional, organism-based
[13] = system: Staphylococcus epidermidis; experiment: Antibacterial activity against Staphylococcus epidermidis H 6966/08 clinical isolate after 24 to 48 hrs by broth microdilution method; assay type: functional, organism-based
[14] = system: Mycobacterium kansasii; experiment: Antimycobacterial activity against Mycobacterium kansasii CNCTC My 235/80 after 5 to 7 days by AlamarBlue assay; assay type: functional
[15] = system: Klebsiella pneumoniae; experiment: Antibacterial activity against ESBL-positive Klebsiella pneumoniae J 14368/08 clinical isolate after 24 to 48 hrs by broth microdilution method; assay type: functional, organism-based
[16] = Antimycobacterial activity against Mycobacterium avium subsp. avium Chester CNCTC My 80/72 after 5 days by AlamarBlue assay; assay type: functional; settings: Chester CNCTC My 80/72, 120 h
[17] = system: Pichia kudriavzevii; experiment: Antifungal activity against Candida krusei E28 after 24 to 48 hrs by two-fold dilution method; assay type: functional, organism-based
[18] = system: Enterococcus sp.; experiment: Antibacterial activity against Enterococcus sp. after 24 to 48 hrs by broth microdilution method; assay type: functional
[19] = system: Candida albicans; experiment: Antifungal activity against Candida albicans ATCC 44859 after 24 to 48 hrs by two-fold dilution method; assay type: functional, organism-based
[20] = system: Enterococcus sp.; experiment: Antibacterial activity against Enterococcus sp. J 14365/08 clinical isolate after 24 to 48 hrs by broth microdilution method; assay type: functional, organism-based
[21] = system: Mycobacterium tuberculosis; experiment: Antimycobacterial activity against Mycobacterium tuberculosis H37Rv CNCTC My 331/88 in Middlebrook 7H9 broth after 5 days by AlamarBlue assay; assay type: functional; settings: H37Rv CNCTC My 331/88, 120 h
[22] = Antimycobacterial activity against Mycobacterium avium subsp. avium Chester CNCTC My 80/72 in Middlebrook 7H9 broth after 5 days by AlamarBlue assay; assay type: functional; settings: Chester CNCTC My 80/72, 120 h
[23] = system: Mycobacterium kansasii; experiment: Antimycobacterial activity against Mycobacterium kansasii CNCTC My 235/80 in Middlebrook 7H9 broth after 5 days by AlamarBlue assay; assay type: functional; settings: CNCTC My 235/80, 120 h

Structure (SMILES) | Activity [1] | Activity [2] | MIC [3] | Activity [4] | Activity [5] | Activity [6] | Activity [7] | Activity [8] | Activity [9] | Activity [10] | Activity [11] | Activity [12] | Activity [13] | MIC [14] | Activity [15] | MIC [16] [µg/mL] | Activity [17] | Activity [18] | Activity [19] | Activity [20] | further results
CCCCCCCNc1cnc(C(=O)Nc2ccccc2Cl)cn1 | inactive | inactive | 36 µM | inactive | inactive | inactive | inactive | inactive | inactive | inactive | inactive | inactive | inactive | > 25 µg/mL | inactive | > 25 | inactive | Active | inactive | inactive | –
CCCCCNc1cnc(C(=O)Nc2ccccc2)cn1 | inactive | inactive | 11 µM | inactive | inactive | inactive | inactive | inactive | inactive | inactive | inactive | inactive | inactive | 11 µM | inactive | > 100 | inactive | Active | inactive | inactive | –
CCCCNc1cnc(C(=O)Nc2ccccc2Cl)cn1 | inactive | inactive | > 100 µg/mL | inactive | inactive | inactive | inactive | inactive | inactive | inactive | inactive | inactive | inactive | > 100 µg/mL | inactive | > 100 | inactive | – | inactive | inactive | MIC [18]: 62.5 µM (≈ 19 µg/mL)
CCCCCCNc1cnc(C(=O)Nc2ccccc2Cl)cn1 | inactive | inactive | > 100 µg/mL | inactive | inactive | inactive | inactive | inactive | inactive | inactive | inactive | inactive | inactive | > 100 µg/mL | inactive | > 100 | inactive | Active | inactive | inactive | –
O=C(Nc1ccccc1Cl)c1cnc(Cl)cn1 | – | – | 2 µM | – | – | – | – | – | – | – | – | – | – | – | – | > 100 | – | – | – | – | –
NC(=O)c1cnccn1 [PYRAZINAMIDE] | – | – | 50.8 µM | – | – | – | – | – | – | – | – | – | – | > 100 µg/mL | – | > 100 | – | – | – | – | –
Nc1cnc(C(=O)Nc2ccccc2)cn1 | inactive | inactive | – | inactive | inactive | inactive | inactive | inactive | inactive | inactive | inactive | inactive | inactive | – | inactive | – | inactive | – | inactive | inactive | MIC [21]: > 100 µg/mL; MIC [22]: > 100 µg/mL; MIC [23]: > 100 µg/mL
CCCCCNc1cnc(C(=O)Nc2ccccc2Cl)cn1 | inactive | inactive | > 100 µg/mL | inactive | inactive | inactive | inactive | inactive | inactive | inactive | inactive | inactive | inactive | > 100 µg/mL | inactive | > 100 | inactive | Active | inactive | inactive | –
CCCNc1cnc(C(=O)Nc2ccccc2Cl)cn1 | inactive | inactive | > 100 µg/mL | inactive | inactive | inactive | inactive | inactive | inactive | inactive | inactive | inactive | inactive | > 100 µg/mL | inactive | > 100 | inactive | Active | inactive | inactive | –
CCCCCCCCNc1cnc(C(=O)Nc2ccccc2)cn1 | inactive | inactive | 9.6 µM | inactive | inactive | inactive | inactive | inactive | inactive | inactive | inactive | inactive | inactive | > 100 µg/mL | inactive | > 100 | inactive | – | inactive | inactive | MIC [18]: 62.5 µM (≈ 20.4 µg/mL)
O=C(Nc1ccccc1Cl)c1cnc(NCCO)cn1 | inactive | inactive | – | inactive | inactive | inactive | inactive | inactive | inactive | inactive | inactive | inactive | inactive | – | inactive | – | inactive | – | inactive | inactive | MIC [21]: > 100 µg/mL; MIC [22]: > 100 µg/mL; MIC [23]: > 100 µg/mL
O=C(Nc1ccccc1)c1cnc(NCCCc2ccccc2)cn1 | inactive | inactive | – | inactive | inactive | inactive | inactive | inactive | inactive | inactive | inactive | inactive | inactive | – | inactive | – | inactive | – | inactive | inactive | MIC [21]: 75.2 µM; MIC [22]: > 100 µg/mL; MIC [23]: > 100 µg/mL
NNC(=O)c1ccncc1 [ISONIAZID] | – | – | 1.5 µM | – | – | – | – | – | – | – | – | – | – | 11.4 µM | – | 12.5 (≈ 91.1 µM) | – | – | – | – | –
O=C(Nc1ccccc1Cl)c1cnc(NCCCc2ccccc2)cn1 | inactive | inactive | – | inactive | inactive | inactive | inactive | inactive | inactive | inactive | inactive | inactive | inactive | – | inactive | – | inactive | – | inactive | inactive | MIC [21]: > 100 µg/mL; MIC [22]: > 100 µg/mL; MIC [23]: > 100 µg/mL
COCCCNc1cnc(C(=O)Nc2ccccc2)cn1 | inactive | inactive | – | inactive | inactive | inactive | inactive | inactive | inactive | inactive | inactive | inactive | inactive | – | inactive | – | inactive | – | inactive | inactive | MIC [21]: 87.3 µM; MIC [22]: > 100 µg/mL; MIC [23]: > 100 µg/mL
